In patent US12514853B2, “Therapeutic dendrimer” (Starpharma Pty Ltd, priority 2018, dated 2026):

Legend:
[1] = system: HT-29 cells (human colon cancer cell line); test: In-vitro anti-cancer drug screening, cell counting (SRB) assay; format: cell-based; conditions: Homo sapiens, concentration required to inhibit net cell growth by 50%
Experimental: A study was carried out to determine the ability of example dendrimers to inhibit growth of HT-29 cells (human colon cancer cell line) using a cell counting (SRB) assay.

[2] = system: HT-29 (human colon carcinoma cell line) xenograft; test: Efficacy in HT-29 xenograft model in mice; format: in vivo, Balb/c nude mice; conditions: day 36, vs vehicle; irinotecan 90 mg/kg, 2f 15, 2i 15, 2h 25 mg/kg IV
[3] = system: MDA-MB-231 (human breast carcinoma cell line) xenograft; test: Efficacy in MDA-MB-231 xenograft model in mice; format: in vivo, Balb/c nude mice; conditions: irinotecan 90 mg/kg, 2f 15, 2h 25 mg/kg IV once weekly for three weeks
[4] = system: HT-29 (human colon carcinoma cell line) xenograft; test: Efficacy alone or in combination with olaparib in HT-29 xenograft model in mice; format: in vivo, Balb/c nude mice
Experimental: Olaparib solid powder obtained from MedChemExpress was solubilised in DMSO and an oral formulation was prepared at a final concentration of 5 mg/ml in 10% DMSO: 15% (2-Hydroxypropyl)-β-cyclodextrin in sterile water.
The endpoint for the analysis was a tumour volume of 1200 mm^3.
Statistical analysis of tumour growth was performed on day 28 when the first study animals reached endpoint criteria for tumour burden.

[5] = 100 mg/kg irinotecan
[6] = patients to which irinotecan is administered; cited from earlier work
[7] = system: SW620 (human colon carcinoma cell line) xenograft; test: Efficacy in SW620 xenograft model in mice; conditions: irinotecan 90 mg/kg, 2f 15, 2i 15, 2h 25, 2a 25 mg/kg IV days 1, 8, 15; study to day 119

In the case of `CCc1c2c(nc3ccc(OC(=O)N4CCC(N5CCCCC5)CC4)cc13)-c1cc3c(c(=O)n1C2)COC(=O)[C@]3(O)CC` [Irinotecan, reference compound], the GI50 [1] is reported as 7 µM, the Tumour growth inhibited [2] is reported as 23% and the “effect on MDA-MB-231 tumour growth” value [3] is reported as “continued to grow during drug treatment”. The “Percent TGI” value ([4]; day 28, olaparib 50 mg/kg orally 5 days on/2 days off for 3 weeks, irinotecan 80 mg/kg IV days 1, 8, 15) was 33%, the “effect on HT-29 tumour growth (in words)” value ([4]; olaparib 50 mg/kg orally, irinotecan 80 mg/kg IV, their combination, 2f 5 and 8 mg/kg IV) was “moderate effect on tumour growth” and the signs of toxicity [5] was “pale extremities and lethargy”. The “patients with early symptoms of gastrointestinal toxicity (diarrhea, emesis, diaphoresis, abdominal cramping)” value [6] was “up to 80%” and the “effect on SW620 tumour growth” value [7] was “delay of tumour growth with the exception of one tumour, which completely regressed after day 25”.
